According to publication PMC6759796, “Integrating Pharmacokinetics Study, Network Analysis, and Experimental Validation to Uncover the Mechanism of Qiliqiangxin Capsule Against Chronic Heart Failure” (Frontiers in Pharmacology, 2019):

experiment: not given; parameters: unit not given beside the values; conditions: rat, in vivo, po

Compound	AUC0∼t	AUC0∼∞
COc1ccc(-c2coc3cc(O[C@@H]4O[C@H](CO)[C@@H](O)[C@H](O)[C@H]4O)ccc3c2=O)cc1O [Calycosin-7-glucoside]	103.26 ± 47.63	120.71 ± 50.71
O=C(O)[C@H](O)Cc1ccc(O)c(O)c1 [Danshensu]	290.92 ± 68.38	390.90 ± 66.50
CC(C)=CCC[C@](C)(O)[C@H]1CC[C@]2(C)[C@@H]1[C@H](O)C[C@@H]1[C@@]3(C)CC[C@H](O[C@@H]4O[C@H](CO)[C@@H](O)[C@H](O)[C@H]4O[C@@H]4O[C@H](CO)[C@@H](O)[C@H](O)[C@H]4O)C(C)(C)[C@@H]3CC[C@]12C [Ginsenoside Rg3]	67.13 ± 27.93	89.81 ± 34.43
COc1ccc([C@@H]2CC(=O)c3c(O)cc(O[C@@H]4O[C@H](CO[C@@H]5O[C@@H](C)[C@H](O)[C@@H](O)[C@H]5O)[C@@H](O)[C@H](O)[C@H]4O)cc3O2)cc1O [Hesperidin]	154.32 ± 66.50	187.77 ± 34.98
COc1cc(/C=C/C(=O)OCC[N+](C)(C)C)cc(OC)c1O.O=S(=O)([O-])O [Sinapine bisulfate]	3.98 ± 1.21	8.76 ± 2.85
Salvianolic acid B	818.47 ± 249.00	980.47 ± 112.07

experiment: in vivo; conditions: Sprague-Dawley, rat, po

Compound	Tmax [h]	half-life [h]
CC(C)=CCC[C@](C)(O[C@@H]1O[C@H](CO)[C@@H](O)[C@H](O)[C@H]1O)[C@H]1CC[C@]2(C)[C@@H]1[C@H](O)C[C@@H]1[C@@]3(C)CC[C@H](O[C@@H]4O[C@H](CO)[C@@H](O)[C@H](O)[C@H]4O)C(C)(C)[C@@H]3CC[C@]12C [Ginsenoside F2]	0.67	6.23 ± 2.89
CC(C)=CCC[C@](C)(O)[C@H]1CC[C@]2(C)[C@@H]1[C@H](O)C[C@@H]1[C@@]3(C)CC[C@H](O)C(C)(C)[C@@H]3[C@@H](O[C@@H]3O[C@H](CO)[C@@H](O)[C@H](O)[C@H]3O[C@@H]3O[C@H](CO)[C@@H](O)[C@H](O)[C@H]3O)C[C@]12C [Ginsenoside Rf]	0.67	6.12 ± 3.53
COC[C@@]12CC[C@H](OC)[C@]34C(C([C@H](OC)[C@H]13)[C@]1(OC(C)=O)[C@H]3[C@@H](OC(=O)c5ccccc5)[C@](O)(C[C@H]34)[C@@H](OC)[C@@H]1O)N(C)C2 [Hypaconitine]	0.33	8.01 ± 2.39
O=C(/C=C/c1ccc(O)c(O)c1)O[C@H](Cc1ccc(O)c(O)c1)C(=O)O [Rosmarinic acid]	0.67	5.28 ± 1.35
C[C@@H]1O[C@@H](OC[C@H]2O[C@@H](Oc3c(-c4ccc(O)c(O)c4)oc4cc(O)cc(O)c4c3=O)[C@H](O)[C@@H](O)[C@@H]2O)[C@H](O)[C@H](O)[C@H]1O [Rutin]	0.33	5.33 ± 1.27
O=C(/C=C/c1ccc(O)c(O)c1/C=C/c1ccc(O)c(O)c1)O[C@H](Cc1ccc(O)c(O)c1)C(=O)O [Salvianolic acid A]	0.17	7.5 ± 4.92

experiment: Pharmacokinetics of 29 QLQX components in rat plasma by HPLC-MS/MS after intragastric QLQX; conditions: Sprague-Dawley, rat, in vivo, po, […]

Compound	Tmax [h]	half-life [h]
CCN1C[C@]2(COC)[C@H](O)C[C@H](OC)[C@@]34[C@@H]5C[C@@]6(O)[C@H](OC(=O)c7ccccc7)[C@@H]5[C@@](OC(C)=O)([C@@H]([C@H](OC)[C@H]23)[C@@H]14)[C@@H](O)[C@@H]6OC [Aconitine]	0.33	18.4 ± 5.44

same assay, conditions: Sprague-Dawley, rat, plasma, po, […]

Compound	Tmax [h]	half-life [h]
COc1ccc(-c2coc3cc(O)ccc3c2=O)cc1 [Formononetin]	0.17	5.07 ± 2.13
CC(C)=CCC[C@](C)(O[C@@H]1O[C@H](CO[C@@H]2O[C@H](CO)[C@@H](O)[C@H](O)[C@H]2O)[C@@H](O)[C@H](O)[C@H]1O)[C@H]1CC[C@]2(C)[C@@H]1[C@H](O)C[C@@H]1[C@@]3(C)CC[C@H](O[C@@H]4O[C@H](CO)[C@@H](O)[C@H](O)[C@H]4O[C@@H]4O[C@H](CO)[C@@H](O)[C@H](O)[C@H]4O)C(C)(C)[C@@H]3CC[C@]12C [Ginsenoside Rb1]	0.67	9.16 ± 3.18
CC(C)=CCC[C@](C)(O[C@@H]1O[C@H](CO[C@@H]2OC[C@H](O)[C@H](O)[C@H]2O)[C@@H](O)[C@H](O)[C@H]1O)[C@H]1CC[C@]2(C)[C@@H]1[C@H](O)C[C@@H]1[C@@]3(C)CC[C@H](O[C@@H]4O[C@H](CO)[C@@H](O)[C@H](O)[C@H]4O[C@@H]4O[C@H](CO)[C@@H](O)[C@H](O)[C@H]4O)C(C)(C)[C@@H]3CC[C@]12C [Ginsenoside Rb2]	1.5 ± 0.06	10.1 ± 4.53
CC(C)=CCC[C@](C)(O[C@@H]1O[C@H](CO[C@@H]2O[C@@H](CO)[C@H](O)[C@H]2O)[C@@H](O)[C@H](O)[C@H]1O)[C@H]1CC[C@]2(C)[C@@H]1[C@H](O)C[C@@H]1[C@@]3(C)CC[C@H](O[C@@H]4O[C@H](CO)[C@@H](O)[C@H](O)[C@H]4O[C@@H]4O[C@H](CO)[C@@H](O)[C@H](O)[C@H]4O)C(C)(C)[C@@H]3CC[C@]12C [Ginsenoside Rc]	0.67	4.32 ± 2.1
CC(C)=CCC[C@](C)(O[C@@H]1O[C@H](CO)[C@@H](O)[C@H](O)[C@H]1O)[C@H]1CC[C@]2(C)[C@@H]1[C@H](O)C[C@@H]1[C@@]3(C)CC[C@H](O[C@@H]4O[C@H](CO)[C@@H](O)[C@H](O)[C@H]4O[C@@H]4O[C@H](CO)[C@@H](O)[C@H](O)[C@H]4O)C(C)(C)[C@@H]3CC[C@]12C [Ginsenoside Rd]	0.67	5.9 ± 1.14
CC(C)=CCC[C@](C)(O[C@@H]1O[C@H](CO)[C@@H](O)[C@H](O)[C@H]1O)[C@H]1CC[C@]2(C)[C@@H]1[C@H](O)C[C@@H]1[C@@]3(C)CC[C@H](O)C(C)(C)[C@@H]3[C@@H](O[C@@H]3O[C@H](CO)[C@@H](O)[C@H](O)[C@H]3O[C@@H]3O[C@@H](C)[C@H](O)[C@@H](O)[C@H]3O)C[C@]12C [Ginsenoside Re]	0.67 ± 0.06	7.33 ± 3.45
CC(C)=CCC[C@](C)(O[C@@H]1O[C@H](CO)[C@@H](O)[C@H](O)[C@H]1O)[C@H]1CC[C@]2(C)[C@@H]1[C@H](O)C[C@@H]1[C@@]3(C)CC[C@H](O)C(C)(C)[C@@H]3[C@@H](O[C@@H]3O[C@H](CO)[C@@H](O)[C@H](O)[C@H]3O)C[C@]12C [Ginsenoside Rg1]	0.67	8.69 ± 3.17
O=C(/C=C/c1ccc(O)c2c1[C@H](C(=O)O)[C@@H](c1ccc(O)c(O)c1)O2)O[C@H](Cc1ccc(O)c(O)c1)C(=O)O [Lithospermic acid]	0.67	4.8 ± 0.89
O=C(O)c1ccc(O)c(O)c1 [Protocatechuic acid]	0.67	8.38 ± 1.02
O=c1c(O)c(-c2ccc(O)c(O)c2)oc2cc(O)cc(O)c12 [Quercetin]	0.67	5.04 ± 0.98

same assay, conditions: rat plasma, QLQX suspension […] intragastrically, mean ± SD

Compound	Tmax	t1/2
CC(C)(O)C1CCC(C)(C2C(O)CC3(C)C4CC(OC5OC(CO)C(O)C(O)C5O)C5C(C)(C)C(OC6OCC(O)C(O)C6O)CCC56CC46CCC23C)O1 (centres unmarked) [Astragaloside]	0.67 ± 0.00	5.74 ± 0.78
CCN1C[C@]2(COC)[C@H](O)C[C@H](OC)[C@@]34[C@@H]5C[C@@]6(O)[C@H](OC(=O)c7ccccc7)[C@@H]5[C@@](O)([C@@H]([C@H](OC)[C@H]23)[C@@H]14)[C@@H](O)[C@@H]6OC [Benzoylaconine]	1.00 ± 0.00	18.63 ± 7.20
COC[C@@]12CC[C@H](OC)[C@]34C([C@H]([C@H](OC)[C@H]13)[C@]1(O)[C@H]3[C@@H](OC(=O)c5ccccc5)[C@](O)(C[C@H]34)[C@@H](OC)[C@@H]1O)N(C)C2 [Benzoylhypaconine]	0.67 ± 0.00	12.88 ± 3.47
COC[C@]12CN(C)C3[C@@H]4[C@H](OC)[C@H]1[C@@]3([C@@H](OC)C[C@H]2O)[C@@H]1C[C@@]2(O)[C@H](OC(=O)c3ccccc3)[C@@H]1[C@]4(O)[C@@H](O)[C@@H]2OC [Benzoylmesaconine]	0.67 ± 0.11	8.23 ± 2.02
COC[C@]12CN(C)[C@@H]3[C@@H]4[C@H](OC)[C@H]1[C@@]3([C@@H](OC)C[C@H]2O)[C@@H]1C[C@@]2(O)[C@H](OC(=O)c3ccccc3)[C@@H]1[C@]4(OC(C)=O)[C@@H](O)[C@@H]2OC [Mesaconitine]	0.17 ± 0.06	6.23 ± 1.23
